Patent publication US9000022B2 (Exelixis Patent Company LLC, priority 2005, dated 2015)

System: LXRα and/or LXRβ
Assay: Co-transfection assay (LXRE luciferase reporter, CV-1 cells)
Assay type: cell-based, human
Conditions: tested as described in Example 33; IC50 or EC50 for LXRα and/or LXRβ, isoform not specified; read-out: activity (IC50 or EC50 for LXR)
Source text: To measure the ability of compounds to activate or inhibit the transcriptional activity of LXR in a cell based assay, the co-transfection assay was used. It has been shown that LXR functions as a heterodimer with RXR. For the co-transfection assay, expression plasmids for LXR and RXR are introduced via transient transfection into mammalian cells along with a luciferase reporter plasmid that contains one copy of a DNA sequence that is bound by LXR-RXR heterodimers (LXRE; Willy, P. et. al. 1995). Treatment of transfected cells with an LXR agonist increases the transcriptional activity of LXR, which is measured by an increase in luciferase activity.
CV-1 African Green Monkey Kidney Cells Co-transfection expression plasmids, comprising full-length LXRα (pCMX-h LXRα, LXRβ (pCMX-hLXRβ), or RXRα (pCMX-RXR), reporter plasmid (LXREx1-Tk-Luciferase), and control (pCMX-Galactosidase expression vector) (Willey et al. Genes & Development 9 1033-1045 (1995)). Transfection reagent such as FuGENE6 (Roche). 1× Cell lysis buffer (1% Triton X 100 (J T Baker X200-07), 10% Glycerol (J T Baker M778-07), 5 mM Ditriotreitol (Quantum Bioprobe DTT03; add fresh before lysing), 1 mM EGTA (Ethylene Glycol-bis(B-Amino ethyl ether)-N,N,N′,N′-Tetracetic Acid) (Sigma E-4378), 25 mM Tricine (ICN 807420) pH 7.8) 1× Luciferase assay buffer (pH at 7.8) (0.73 mM ATP, 22.3 mM Tricine, 0.11 mM EDTA, 33.3 mM DTT) 1× Luciferrin/CoA (11 mM Luciferin, 3.05 mM Coenzyme A, 10 mM HEPES)
CV-1 cells were prepared 24 hours prior to the experiment by plating them into T-175 flasks or 500 cm^2 dishes in order to achieve 70-80% confluency on the day of the transfection. The number of cells to be transfected was determined by the number of plates to be screened. Each 384 well plate requires 1.92×10^6 cells or 5000 cells per well. DNA Transfection Reagent was prepared by mixing the required plasmid DNAs with a cationic lipid transfection reagent FuGENE6 (Roche) by following the instructions provided with the reagents. Optimal DNA amounts were determined empirically per cell line and size of vessel to be transfected. 10-12 mL of media was added to the DNA Transfection Reagent and this mixture was added to the cells after aspirating media from the T175 cm^2 flask. Cells were then incubated at least 5 hours at 37° C. to prepare screening cells.
Luciferase assay reagent was prepared by combining before use (per 10 mL): 10 mL 1× Luciferase assay buffer; 0.54 mL of 1× Luciferrin/CoA; 0.54 mL of 0.2 M Magnesium sulfate
Assay plates were prepared by dispensing 5 μL, of compound per well of a 384 well plate to achieve final compound concentration of 10 μM and no more than 1% DMSO. Media was removed from the screening cells, the cells trypsinized, harvested cells by centrifugation, counted, and plated at a density of approximately 5000 cells per well in the 384 well assay plate prepared above in a volume of about 45 μL. Assay plates containing both compounds and screening cells (50 μL in total volume) were incubated for 20 hours at 37° C.
After incubation with compounds, media was removed from the cells and lysis buffer (30 μL/well) added. After 30 minutes at ambient temperature, luciferase assay buffer (30 μL/well) was added and the assay plates read on a luminometer (PE Biosystems Northstar reader with on-board injectors, or equivalent). Plates were read immediately after addition of luciferase assay buffer.
The LXR/LNRE co-transfection assay can be used to establish the EC50/IC50 values for potency and percent activity or inhibition for efficacy. Efficacy defines the activity of a compound relative to a high control ((N-(3-((4-fluorophenyl)-(naphthalene-2-sulfonyl)amino)propyl)-2,2-dimethylpropionamide)) or a low control (DMSO/vehicle). The dose response curves are generated from an 8 point curve with concentrations differing by ½ LOG units. Each point represents the average of 4 wells of data from a 384 well plate. […]

| IC50 or EC50 (potency, activation or inhibition) | SMILES |
| --- | --- |
| < 1 µM | Cc1cc(-c2cccc(S(C)(=O)=O)c2)ccc1-c1nc(C(C)(C)O)cn1-c1c(C)cccc1C(C)C [Example 59, 2-(1-(2-isopropyl-6-methylphenyl)-2-(3-methyl-3′-(methylsulfonyl)biphenyl-4-yl)-1H-imidazol-4-yl)propan-2-ol] |
| < 1 µM | CCS(=O)(=O)c1cccc(-c2ccc(-c3nc(C(C)(C)O)cn3-c3c(C)cccc3C(C)C)c(C)c2)c1 [Example 60, 2-(2-(3′-(ethylsulfonyl)-3-methyl-biphenyl-4-yl)-1-(2-isopropyl-6-methylphenyl)-1H-imidazol-4-yl)propan-2-ol] |
| < 1 µM | Cc1cc(-c2cccc(S(C)(=O)=O)c2)ccc1-c1nc(C(C)(C)O)cn1-c1ccccc1C(C)C [Example 61, 2-(1-(2-isopropylphenyl)-2-(3-methyl-3′-(methylsulfonyl)biphenyl-4-yl)-1H-imidazol-4-yl)propan-2-ol] |
| < 1 µM | CCS(=O)(=O)c1cccc(-c2ccc(-c3nc(C(C)(C)O)cn3-c3ccccc3C(C)C)c(C)c2)c1 [Example 62, 2-(2-(3′-(ethylsulfonyl)-3-methyl-biphenyl-4-yl)-1-(2-isopropylphenyl)-1H-imidazol-4-yl)propan-2-ol] |
| < 1 µM | CC(C)(O)c1cn(-c2c(Cl)cccc2Cl)c(-c2ccc(-c3cccc(S(C)(=O)=O)c3)cc2)n1 [Example 63, 2-(1-(2,6-dichlorophenyl)-2-(3′-(methylsulfonyl)biphenyl-4-yl)-1H-imidazol-4-yl)propan-2-ol] |
| < 1 µM | CCS(=O)(=O)c1cccc(-c2ccc(-c3nc(C(C)(C)O)cn3-c3c(Cl)cccc3Cl)cc2)c1 [Example 64, 2-(1-(2,6-dichlorophenyl)-2-(3′-(ethylsulfonyl)biphenyl-4-yl)-1H-imidazol-4-yl)propan-2-ol] |
| < 1 µM | CC(C)(O)c1cn(-c2c(Cl)cccc2Cl)c(-c2ccc(-c3cccc(S(C)(=O)=O)c3)cc2Cl)n1 [Example 65, 2-(2-(3-chloro-3′-(methyl-sulfonyl)biphenyl-4-yl)-1-(2,6-dichlorophenyl)-1H-imidazol-4-yl)propan-2-ol] |
| < 1 µM | CCS(=O)(=O)c1cccc(-c2ccc(-c3nc(C(C)(C)O)cn3-c3c(Cl)cccc3Cl)c(Cl)c2)c1 [Example 66, 2-(2-(3-chloro-3′-(ethyl-sulfonyl)biphenyl-4-yl)-1-(2,6-dichlorophenyl)-1H-imidazol-4-yl)propan-2-ol] |
| < 1 µM | CC(O)(c1cn(-c2ccc(-c3cccc(S(C)(=O)=O)c3)cc2)c(-c2ccccc2C(F)(F)F)n1)C(F)(F)F (stereo not drawn) [Example 67] |
| < 1 µM | CCOC(=O)c1cn(-c2ccc(-c3cccc(S(C)(=O)=O)c3)cc2Cl)c(-c2c(Cl)cccc2Cl)n1 [Example 68, ethyl 1-(3-chloro-3′-(methyl-sulfonyl)biphenyl-4-yl)-2-(2,6-dichlorophenyl)-1H-imidazole-4-carboxylate] |
| < 1 µM | CC(=O)c1cn(-c2ccc(-c3cccc(S(C)(=O)=O)c3)cc2)c(-c2c(Cl)cccc2Cl)n1 [Example 69, 1-(2-(2,6-dichlorophenyl)-1-(3′-(methylsulfonyl)biphenyl-4-yl)-1H-imidazol-4-yl)ethanone] |
| < 1 µM | C/C(=N\O)c1cn(-c2ccc(-c3cccc(S(C)(=O)=O)c3)cc2)c(-c2c(Cl)cccc2Cl)n1 [Example 70, (E)-1-(2-(2,6-dichlorophenyl)-1-(3′-(methylsulfonyl)biphenyl-4-yl)-1H-imidazol-4-yl)ethanone oxime] |
| < 1 µM | CCc1ccccc1-c1nc(/C(C)=N/O)cn1-c1ccc(-c2cccc(S(C)(=O)=O)c2)cc1 [Example 71, (E)-1-(2-(2-ethylphenyl)-1-(3′-(methylsulfonyl)biphenyl-4-yl)-1H-imidazol-4-yl)ethanone oxime] |
| < 1 µM | CCC(O)(CC)c1cn(-c2ccc(-c3cccc(S(C)(=O)=O)c3)cc2)c(-c2cccc(Cl)c2Cl)n1 [Example 72, 3-(2-(2,3-dichlorophenyl)-1-(3′-(methylsulfonyl)biphenyl-4-yl)-1H-imidazol-4-yl)pentan-3-ol] |
| < 1 µM | CCC(O)(CC)c1cn(-c2ccc(-c3cccc(S(=O)(=O)CC)c3)cc2)c(-c2cccc(Cl)c2Cl)n1 [Example 73, 3-(2-(2,3-dichlorophenyl)-1-(3′-(ethylsulfonyl)biphenyl-4-yl)-1H-imidazol-4-yl)pentan-3-ol] |
| < 1 µM | CCC(O)(CC)c1cn(-c2ccc(-c3cccc(S(C)(=O)=O)c3)cc2)c(-c2c(Cl)cccc2Cl)n1 [Example 74, 3-(2-(2,6-dichlorophenyl)-1-(3′-(methylsulfonyl)biphenyl-4-yl)-1H-imidazol-4-yl)pentan-3-ol] |
| < 1 µM | Cc1cc(-c2cccc(S(C)(=O)=O)c2)ccc1-n1cc(C(=S)NCC(F)(F)F)nc1-c1ccccc1C(C)C [Example 75, 2-(2-isopropylphenyl)-1-(3-methyl-3′-(methylsulfonyl)biphenyl-4-yl)-N-(2,2,2-trifluoroethyl)-1H-imidazole-4-carbothioamide] |
| < 1 µM | C/C(=N\O)c1cn(-c2ccc(-c3cccc(S(C)(=O)=O)c3)cc2C)c(-c2ccccc2C(C)C)n1 [Example 76, (E)-1-(2-(2-isopropylphenyl)-1-(3-methyl-3′-(methylsulfonyl)biphenyl-4-yl)-1H-imidazol-4-yl)ethanone oxime] |
| < 1 µM | C=C(C)c1cn(-c2ccc(-c3cccc(S(=O)(=O)CC)c3)cc2)c(-c2cccc(Cl)c2Cl)n1 [Example 77, 2-(2,3-dichlorophenyl)-1-(3′-(ethylsulfonyl)biphenyl-4-yl)-4-(prop-1-en-2-yl)-1H-imidazole] |
| < 1 µM | C=C(C)c1cn(-c2ccc(-c3cccc(S(C)(=O)=O)c3)cc2)c(-c2c(Cl)cccc2Cl)n1 [Example 78, 2-(2,6-dichlorophenyl)-1-(3′-(methylsulfonyl)biphenyl-4-yl)-4-(prop-1-en-2-yl)-1H-imidazole] |
| 1 to 10 µM | CC(C)(O)c1cn(-c2ccc(-c3ccc(C(=O)NCc4ccccc4)c(S(C)(=O)=O)c3)cc2Cl)c(-c2c(F)cccc2Cl)n1 [Example 80, N-benzyl-3′-chloro-4′-(2-(2-chloro-6-fluorophenyl)-4-(2-hydroxypropan-2-yl)-1H-imidazol-1-yl)-3-(methyl-sulfonyl)biphenyl-4-carboxamide] |
| < 1 µM | CCNC(=O)c1cn(-c2ccc(-c3cccc(S(C)(=O)=O)c3)cc2)c(-c2c(Cl)cccc2Cl)n1 [Example 82, 2-(2,6-dichlorophenyl)-N-ethyl-1-(3′-(methylsulfonyl)biphenyl-4-yl)-1H-imidazole-4-carboxamide] |
| 1 to 10 µM | CN1CCN(C(=O)c2cn(-c3ccc(-c4cccc(S(C)(=O)=O)c4)cc3)c(-c3c(Cl)cccc3Cl)n2)CC1 [Example 83, (2-(2,6-dichlorophenyl)-1-(3′-(methylsulfonyl)biphenyl-4-yl)-1H-imidazol-4-yl)(4-methylpiperazin-1-yl)methanone] |
| < 1 µM | CS(=O)(=O)c1cccc(-c2ccc(-n3cc(C(=O)NCCO)nc3-c3c(Cl)cccc3Cl)cc2)c1 [Example 84, 2-(2,6-dichlorophenyl)-N-(2-hydroxyethyl)-1-(3′-(methyl-sulfonyl)biphenyl-4-yl)-1H-imidazole-4-carboxamide] |
